Source: ChEMBL document CHEMBL1150806, “A new macrocyclic trichothecene, 12,13-deoxyroridin E, produced by the marine-derived fungus Myrothecium roridum collected in Palau” (J Nat Prod, 2001)
In brackets after ≈: the same amount, converted by molar mass.

Columns and labels:
HL-60 = assay: Cytotoxicity against human HL60 cells after 72 hrs by WST8 assay; type: functional, cell-based
L1210 = assay: Cytotoxicity against mouse L1210 cells after 72 hrs by WST8 assay; type: functional, cell-based

Row | SMILES | IC50 (HL-60; hl-60) [ng/mL] | IC50 (L1210; l1210) [ng/mL] | IC50 (HL-60; Homo sapiens, HL-60, 72 h, read-out: IC50) [ng/mL] | IC50 (L1210; Mus musculus, L1210, 72 h, read-out: IC50) [ng/mL]
1 | CC1=C[C@H]2O[C@@H]3C[C@H]4OC(=O)/C=C\C=C\C(=O)OCC[C@@H](C)[C@H](O)C(=O)OC[C@@]2(CC1)[C@]4(C)[C@]31CO1 [VERRUCARIN A] | 0.2 (≈ 0.398 nM) | 0.35 (≈ 0.696 nM) | – | –
2 | CC1=C[C@H]2O[C@@H]3C[C@H]4OC(=O)/C=C\C=C\[C@H]([C@@H](C)O)OCC/C(C)=C/C(=O)OC[C@@]2(CC1)[C@]4(C)[C@]31CO1 [RORIDIN E] | 0.3 (≈ 0.583 nM) | 0.2 (≈ 0.389 nM) | – | –
3 | C=C1[C@H]2C[C@H]3OC(=O)/C=C\C=C\[C@H]([C@@H](C)O)OCC/C(C)=C/C(=O)OC[C@@]4(CCC(C)=C[C@H]4O2)[C@]13C | – | – | 25 (≈ 50.1 nM) | 1.5 (≈ 3.01 nM)
4 | CC1=C[C@H]2O[C@@H]3C[C@H]4OC(=O)/C=C\C=C\C(=O)OCC/C(C)=C/C(=O)OC[C@@]2(CC1)[C@]4(C)[C@]31CO1 [VERRUCARIN J] | 2.5 (≈ 5.16 nM) | 2.5 (≈ 5.16 nM) | – | –
